Assays:
Format in all cases: cell-based
IRAK4 [1] = molecular target: T1, IRAK4 (Homo sapiens, UniProt Q9NWZ3); test: IRAK4 Degradation Assay (Karpas299, HTRF/TR-FRET); conditions: Karpas-299 cells; for Dmax: maximum percentage of degradation
T1 construct: endogenous in cells; host or cells: Karpas299
T1 sequence (Q9NWZ3 1-460): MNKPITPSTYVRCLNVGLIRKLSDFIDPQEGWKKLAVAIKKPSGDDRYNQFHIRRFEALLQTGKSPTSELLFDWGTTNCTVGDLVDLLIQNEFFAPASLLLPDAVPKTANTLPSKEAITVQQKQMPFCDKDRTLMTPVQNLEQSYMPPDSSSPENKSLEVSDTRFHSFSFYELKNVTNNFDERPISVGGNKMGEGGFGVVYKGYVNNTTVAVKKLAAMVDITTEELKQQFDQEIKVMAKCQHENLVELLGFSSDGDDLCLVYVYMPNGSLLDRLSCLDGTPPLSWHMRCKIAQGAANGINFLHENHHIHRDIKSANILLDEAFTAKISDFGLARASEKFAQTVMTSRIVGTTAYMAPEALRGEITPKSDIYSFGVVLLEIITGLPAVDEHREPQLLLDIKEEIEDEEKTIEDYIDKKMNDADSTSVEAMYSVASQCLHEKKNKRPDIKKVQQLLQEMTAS
How it was run: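 Karpas299 cells at 0.2 million per well were exposed to serially diluted compounds for 24 h or 5 h, then lysed. IRAK4 remaining in lysates was quantified by HTRF (665/620 nm) after overnight antibody incubation at room temperature. Percent degradation was fitted to a four-parameter curve to give IC50 (DC50).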

IRAK4 [2] = molecular target: T1, IRAK4; test: IRAK4 Degradation Assay with Human Serum (Karpas299, HTRF/TR-FRET); conditions: Karpas-299 in human serum, 24 hrs treatment; for DC50: read-out: IRAK4 degradtion with human serum assay DC50; for Dmax: read-out: IRAK4 degradtion with human serum assay Dmax (%)
How it was run: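 Karpas299 cells in human AB serum (0.2 million/well) treated with serial compound dilutions for 24 h. After lysis, IRAK4 quantified by HTRF (overnight antibody incubation at room temperature, 665/620 nm read). Degradation percentage fitted to four-parameter curve to give DC50.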

[3] = system: TNF-α production in THP-1 cells; test: TNF-α Production Assay in THP-1 Cells (LPS stimulated); conditions: Homo sapiens, THP-1, 24 h; for Emax: maximum inhibition, read-out: TNF-α (THP-1) 24 h IMax
How it was run: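 Cells (0.2 million/well) pretreated with compounds for 24 h, then stimulated with LPS at 1 μg/mL final for 24 h. TNF-α in culture supernatant quantified by TR-FRET immunoassay.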

[4] = system: IL-6 production in human PBMC; test: IL-6 Production Assay in Human PBMC (LPS stimulated); conditions: Homo sapiens, 5 h; for Emax: maximum inhibition, read-out: IL-6 (PBMC) 5 h IMax
Method: Frozen human PBMC (AllCells) were thawed in RPMI 1640 medium (Thermo Scientific) supplemented with 10% heat-inactivated FBS (Thermo Scientific) and recovered at 37° C. overnight. The next day, PBMC were seeded into 96-well plates at the density of 0.2 million cells per well and treated with compounds for 24 h. Then lipopolysaccharide was added at the final concentration of 10 ng/mL for 5 h. Culture supernatant was collected for subsequent measurement of IL-6 concentration by a TR-FRET-based method (Degorce, François, et al. Current chemical genomics. 2009, 3: 22) as described by the manufacturer manual (Cisbio). FRET signals were measured with PHERAstar FSX reader (BMG Labtech).

[5] = 5 h treatment, read-out: IRAK4 in Karpas-299 (5 h) Dmax (%)
[6] = 5 h treatment, read-out: IRAK4 in Karpas-299 (5 h) DC50
[7] = 24 h treatment, read-out: IRAK4 in Karpas-299 (24 h) Dmax (%)
[8] = 24 h treatment, read-out: IRAK4 in Karpas-299 (24 h) DC50

Structure (SMILES)	Dmax (IRAK4 [1]; [5])	DC50 (IRAK4 [1]; [6])	Dmax (IRAK4 [1]; [7])	DC50 (IRAK4 [1]; [8])	DC50 (IRAK4 [2])	Dmax (IRAK4 [2])	IC50 [3]	Emax [3]	IC50 [4]	Emax [4]
CC(C)(O)c1cc2nn([C@H]3CC[C@H](N4CCN(CCc5cc(F)c([C@H]6CCC(=O)NC6=O)c(F)c5)CC4)CC3)cc2cc1NC(=O)c1ccc2cc(C#N)cnn12 [Example 182, 3-cyano-N-(2-((1R,4r)-4-(4-(4-((R)-2,6-dioxopiperidin-3-yl)-3,5-difluorophenethyl)piperazin-1-yl)cyclohexyl)-6-(2-hydroxypropan-2-yl)-2H-indazol-5-yl)pyrrolo[1,2-b]pyridazine-7-carboxamide]	96%	2.3 nM	98%	0.3 nM	3.7 nM	99%	33 nM	71%	2.5 nM	64%
CC(C)(O)c1cc2nn([C@H]3CC[C@H](N4CCN(CC5CN(c6cc(F)c([C@H]7CCC(=O)NC7=O)c(F)c6)C5)CC4)CC3)cc2cc1NC(=O)c1ccc2cc(C#N)cnn12 [Example 290, 3-cyano-N-(2-((1r,4r)-4-(4-((1-(4-((R)-2,6-dioxopiperidin-3-yl)-3,5-difluorophenyl)azetidin-3-yl)methyl)piperazin-1-yl)cyclohexyl)-6-(2-hydroxypropan-2-yl)-2H-indazol-5-yl)pyrrolo[1,2-b]pyridazine-7-carboxamide]	–	–	98%	0.6 nM	4.4 nM	99%	9 nM	96%	0.8 nM	71%
COC[C@H]1CN(CCc2cc(F)c([C@H]3CCC(=O)NC3=O)c(F)c2)CCN1[C@H]1CC[C@H](n2cc3cc(NC(=O)c4ccc5cc(C#N)cnn45)c(C(C)(C)O)cc3n2)CC1 [Example 321, 3-cyano-N-(2-((1R,4r)-4-((R)-4-(4-((R)-2,6-dioxopiperidin-3-yl)-3,5-difluorophenethyl)-2-(methoxymethyl)piperazin-1-yl)cyclohexyl)-6-(2-hydroxypropan-2-yl)-2H-indazol-5-yl)pyrrolo[1,2-b]pyridazine-7-carboxamide]	–	–	96%	1.4 nM	5.5 nM	98%	55 nM	77%	0.4 nM	58%
CC(C)(O)c1cc2nn(C34CCC(N5CCN(CCc6cc(F)c([C@H]7CCC(=O)NC7=O)c(F)c6)CC5)(CC3)CC4)cc2cc1NC(=O)c1ccc2cc(C#N)cnn12 [Example 151, (R)-3-cyano-N-(2-(4-(4-(4-(2,6-dioxopiperidin-3-yl)-3,5-difluorophenethyl)piperazin-1-yl)bicyclo[2.2.2]octan-1-yl)-6-(2-hydroxypropan-2-yl)-2H-indazol-5-yl)pyrrolo[1,2-b]pyridazine-7-carboxamide]	–	–	99%	0.9 nM	3.9 nM	101%	27 nM	84%	7.4 nM	53%
COC[C@H]1CN([C@H]2CC[C@H](n3cc4cc(NC(=O)c5ccc6cc(C#N)cnn56)c(C(C)(C)O)cc4n3)CC2)CCN1CCc1cc(F)c([C@H]2CCC(=O)NC2=O)c(F)c1 [Example 314, 3-cyano-N-(2-((1R,4r)-4-((R)-4-(4-((R)-2,6-dioxopiperidin-3-yl)-3,5-difluorophenethyl)-3-(methoxymethyl)piperazin-1-yl)cyclohexyl)-6-(2-hydroxypropan-2-yl)-2H-indazol-5-yl)pyrrolo[1,2-b]pyridazine-7-carboxamide]	–	–	98%	0.6 nM	3.4 nM	98%	26 nM	88%	2.3 nM	51%
COC[C@@H]1CN([C@H]2CC[C@H](n3cc4cc(NC(=O)c5ccc6cc(C#N)cnn56)c(C(C)(C)O)cc4n3)CC2)CCN1CCc1cc(F)c([C@H]2CCC(=O)NC2=O)c(F)c1 [Example 320]	–	–	99%	1 nM	4.1 nM	98%	43 nM	85%	9.2 nM	65%
CC(C)(O)c1cc2nn([C@H]3CC[C@H](N4CCN(C5CCN(c6cc(F)c(C7CCC(=O)NC7=O)c(F)c6)CC5)CC4)CC3)cc2cc1NC(=O)c1ccc2cc(C#N)cnn12 (stereo partly drawn) [Example 196, 3-cyano-N-(2-((1r,4r)-4-(4-(1-(4-((R)-2,6-dioxopiperidin-3-yl)-3,5-difluorophenyl)piperidin-4-yl)piperazin-1-yl)cyclohexyl)-6-(2-hydroxypropan-2-yl)-2H-indazol-5-yl)pyrrolo[1,2-b]pyridazine-7-carboxamide]	99%	5.3 nM	99%	0.6 nM	8.8 nM	93%	20 nM	86%	11 nM	72%

Second part, led by results:

Dmax (IRAK4 [1]; [5])	DC50 (IRAK4 [1]; [6])	Dmax (IRAK4 [1]; [7])	DC50 (IRAK4 [1]; [8])	DC50 (IRAK4 [2])	Dmax (IRAK4 [2])	IC50 [3]	Structure (SMILES)	Emax [3]	IC50 [4]	Emax [4]
97%	1.5 nM	97%	0.6 nM	10 nM	101%	7.6 nM	CC(C)(O)c1cc2nn(C34CC(N5CCN(CC6CN(c7cc(F)c([C@H]8CCC(=O)NC8=O)c(F)c7)C6)CC5)(C3)C4)cc2cc1NC(=O)c1ccc2cc(C#N)cnn12 [Example 332, (R)-3-cyano-N-(2-(3-(4-((1-(4-(2,6-dioxopiperidin-3-yl)-3,5-difluorophenyl)azetidin-3-yl)methyl)piperazin-1-yl)bicyclo[1.1.1]pentan-1-yl)-6-(2-hydroxypropan-2-yl)-2H-indazol-5-yl)pyrrolo[1,2-b]pyridazine-7-carboxamide]	93%	1.4 nM	70%
97%	1.9 nM	97%	2.3 nM	2.6 nM	98%	21 nM	Cc1nc(C2CCC(=O)NC2=O)ccc1N1CCC(N2CCN([C@H]3CC[C@H](n4cc5cc(NC(=O)c6ccc7cc(C#N)cnn67)c(C(C)(C)O)cc5n4)CC3)CC2)CC1 (stereo partly drawn) [Example 398, 3-cyano-N-(2-((1r,4r)-4-(4-(1-(6-(2,6-dioxopiperidin-3-yl)-2-methylpyridin-3-yl)piperidin-4-yl)piperazin-1-yl)cyclohexyl)-6-(2-hydroxypropan-2-yl)-2H-indazol-5-yl)pyrrolo[1,2-b]pyridazine-7-carboxamide]	97%	2.4 nM	70%
98%	12 nM	97%	0.7 nM	19 nM	101%	42 nM	COC[C@H]1CN(CC2CN(c3cc(F)c([C@H]4CCC(=O)NC4=O)c(F)c3)C2)CCN1[C@H]1CC[C@H](n2cc3cc(NC(=O)c4ccc5cc(C#N)cnn45)c(C(C)(C)O)cc3n2)CC1 [Example 322, 3-cyano-N-(2-((1R,4r)-4-((R)-4-((1-(4-((R)-2,6-dioxopiperidin-3-yl)-3,5-difluorophenyl)azetidin-3-yl)methyl)-2-(methoxymethyl)piperazin-1-yl)cyclohexyl)-6-(2-hydroxypropan-2-yl)-2H-indazol-5-yl)pyrrolo[1,2-b]pyridazine-7-carboxamide]	94%	9.7 nM	81%
